According to ChEMBL document CHEMBL1201862, “PubChem BioAssay data set” (2004):
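48-hour exposure; five concentrations; linearly interpolated endpoints. Abbreviation: GI50, concentration required for 50% inhibition of growth.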 Activity calls are given as the source filed them. Rule as the data show it: active = GI50 up to about 1.1 µM and inactive = higher.

How the values were obtained:
Assay in all cases: NCI anticancer screen, dose series, 48 h
COLO 205 = tested on: COLO 205
DU-145 = tested on: DU-145
HCT-116 = tested on: HCT-116
HCT-15 = tested on: HCT-15
HOP-92 = tested on: HOP-92
HT-29 = tested on: HT-29
K562 = tested on: K562
MDA-MB-435 = tested on: MDA-MB-435
MDA-N = tested on: MDA-N
MOLT-4 = tested on: MOLT-4
NCI-H23 = tested on: NCI-H23
OVCAR-3 = tested on: OVCAR-3
OVCAR-4 = tested on: OVCAR-4
OVCAR-5 = tested on: OVCAR-5
SK-MEL-2 = tested on: SK-MEL-2
SN12C = tested on: SN12C
SR = tested on: SR
U-251 = tested on: U-251

SMILES | GI50 (COLO 205) | GI50 (DU-145) | GI50 (HCT-116) | GI50 (HCT-15) [µM] | GI50 (HOP-92) | GI50 (HT-29) | GI50 (K562) | GI50 (MDA-MB-435) | GI50 (MDA-N) | GI50 (MOLT-4) | GI50 (NCI-H23) | GI50 (OVCAR-3) | GI50 (OVCAR-4) | GI50 (OVCAR-5) | GI50 (SK-MEL-2) | GI50 (SN12C) | GI50 (SR) | GI50 (U-251)
O=C(O)CC1(CC(=O)O)Nc2ccccc2SC1=O | > 100 µM (inactive) | > 100 µM (inactive) | > 100 µM (inactive) | > 100 | > 100 µM (inactive) | > 100 µM (inactive) | > 100 µM (inactive) | > 100 µM (inactive) | > 100 µM (inactive) | > 100 µM (inactive) | > 100 µM (inactive) | > 100 µM (inactive) | > 100 µM (inactive) | > 100 µM (inactive) | > 100 µM (inactive) | > 100 µM (inactive) | > 100 µM (inactive) | > 100 µM (inactive)
CN1c2ccccc2C2=C(c3ccccc3)CC[C@@H](C(=O)N3C4CC5CC[C@@]4(CS3(=O)=O)C5(C)C)[C@@H]21 (stereo partly drawn) | > 100 µM (inactive) | > 100 µM (inactive) | 34.2 µM (inactive) | > 100 | > 100 µM (inactive) | > 100 µM (inactive) | 10.5 µM (inactive) | > 100 µM (inactive) | > 100 µM (inactive) | 4.58 µM (inactive) | > 100 µM (inactive) | > 100 µM (inactive) | > 100 µM (inactive) | > 100 µM (inactive) |  | > 100 µM (inactive) | > 100 µM (inactive) | > 100 µM (inactive)
CCN(CC)CCN(C)CCc1ccc(Br)cc1 | 17.4 µM (inactive) | > 100 µM (inactive) | 59.8 µM (inactive) | 61.1 | 27.4 µM (inactive) | 24.9 µM (inactive) | 25.7 µM (inactive) | 53.1 µM (inactive) | 29.7 µM (inactive) | 53.6 µM (inactive) | > 100 µM (inactive) | > 100 µM (inactive) | 97.3 µM (inactive) | 48 µM (inactive) | > 100 µM (inactive) | > 100 µM (inactive) | > 100 µM (inactive) | 41.4 µM (inactive)
NC1Cc2ccccc2OC1=O (stereo not drawn) | > 100 µM (inactive) | > 100 µM (inactive) |  | > 100 |  | > 100 µM (inactive) | > 100 µM (inactive) | > 100 µM (inactive) | > 10 µM (inactive) | > 100 µM (inactive) | > 100 µM (inactive) | > 100 µM (inactive) |  | > 100 µM (inactive) | > 100 µM (inactive) | > 100 µM (inactive) | > 100 µM (inactive) | > 100 µM (inactive)
COC(=O)C1=C(C)N2[C@H](C(=O)O)CS[C@@]2(C)[C@H](C(=O)OC)[C@H]1c1cccc([N+](=O)[O-])c1 | > 100 µM (inactive) | > 100 µM (inactive) | > 100 µM (inactive) | > 100 | 54.5 µM (inactive) | > 100 µM (inactive) | > 100 µM (inactive) | > 100 µM (inactive) | > 100 µM (inactive) | > 100 µM (inactive) | > 100 µM (inactive) | > 100 µM (inactive) | > 100 µM (inactive) | > 100 µM (inactive) | > 100 µM (inactive) | > 100 µM (inactive) | > 100 µM (inactive) | > 100 µM (inactive)
Clc1cc(Cl)ncn1 | > 100 µM (inactive) | > 100 µM (inactive) | > 100 µM (inactive) | > 100 | > 100 µM (inactive) | > 100 µM (inactive) | > 100 µM (inactive) | > 100 µM (inactive) | > 100 µM (inactive) | > 100 µM (inactive) | > 100 µM (inactive) | > 100 µM (inactive) | > 100 µM (inactive) | > 100 µM (inactive) |  | > 100 µM (inactive) | > 100 µM (inactive) | > 100 µM (inactive)
